The text below walks through data of US4696928A, “Substituted dihydroimidazo[1,2-a]quinoxalines” (G. D. Searle & Co., priority 1985, dated 1987).

Values after ≈ are worked out from the molar mass of the structure shown. Read-outs that look alike come from different tables or passages of the source.

One test deals with B. fragilis NCTC 10581. Nature of the test: MIC/MBC broth microdilution, strain A. To be noted: Bacteroides fragilis, NCTC10581, 48 h; for MIC: 37° C., anaerobic; for MBC: 99.9% reduction in viable count after 48 h. Type of test: cell-based. (In broth dilution the organism is exposed to a series of concentrations in liquid medium.)
For the next test, the system named is B. fragilis NCTC 9343. Nature of the test: MIC/MBC broth microdilution, strain B. Type of test: cell-based. To be noted: Bacteroides fragilis, NCTC9343, 48 h; for MIC: 37° C., anaerobic; for MBC: 99.9% reduction in viable count after 48 h.
A further test deals with B. fragilis NCTC 9344. Nature of the test: MIC/MBC broth microdilution, strain C. Type of test: cell-based, Bacteroides fragilis. To be noted: Bacteroides fragilis, NCTC9344, 48 h; for MIC: 37° C., anaerobic, read-out: MIC; for MBC: 99.9% reduction in viable count after 48 h, read-out: MBC.
Test [1] deals with B. fragilis MZ-R ATCC 11295. Nature of the test: MIC/MBC broth microdilution, strain D. Type of test: cell-based. The following applies: Bacteroides fragilis, ATCC11295, 48 h; for MBC: 99.9% reduction in viable count after 48 h.
A further test deals with B. fragilis WS-1. Nature of the test: MIC/MBC broth microdilution, strain E. The following applies: Bacteroides fragilis, WS1, 48 h; for MIC: 37° C., anaerobic, read-out: MIC; for MBC: 99.9% reduction in viable count after 48 h. Type of test: cell-based, Bacteroides fragilis.
Test [2] concerns Clostridium perfringens NCTC 523. Nature of the test: microbe, parasite or virus in culture. The test is classed as cell-based. The following applies: NCTC523.
The test system of test [3] is Clostridium perfringens NCTC 8237. Nature of the test: microbe, parasite or virus in culture. Type of test: cell-based. To be noted: NCTC8237.
Test [4] deals with Clostridium difficile NCIB 10666. Nature of the test: MIC vs. panel of anaerobes. The following applies: Clostridioides difficile, NCIB10666; Clostridium difficile NCIB 10666; read-out: MIC. The test is classed as cell-based.
Test [5] relates to Clostridium difficile Cytotoxic 1. Nature of the test: MIC vs. panel of anaerobes. Type of test: cell-based. To be noted: Clostridioides difficile.
The test system of test [6] is Campylobacter fetus ss.jejuni ATCC 29428. Nature of the test: MIC vs. panel of anaerobes. The test is classed as cell-based. The following applies: ATCC29428.
Test [7] has as its system Fusobacterium necrophorum ATCC 11295. Nature of the test: MIC vs. panel of anaerobes. To be noted: ATCC11295; Fusobacterium necrophorum ATCC 11295; read-out: MIC. The test is classed as cell-based.
For test [8], the system named is Bacteroides melanogenicus NCTC 9336. Nature of the test: MIC vs. panel of anaerobes. The test is classed as cell-based. To be noted: NCTC9336; Bacteroides melanogenicus NCTC 9336; read-out: MIC.
Test [9] concerns Peptostreptococcus anaerobicus. Nature of the test: MIC vs. panel of anaerobes. The test is classed as cell-based. The following applies: Peptostreptococcus anaerobicus; read-out: MIC.
The test system of test [10] is Propionebecterium acnes NCTC 737. Nature of the test: MIC vs. panel of anaerobes. Type of test: cell-based.
The test system of test [11] is Propionebacterium acnes NCTC 7337. Nature of the test: MIC vs. panel of anaerobes. Type of test: cell-based.
A further test deals with B. Fragilis ATCC 23745. The following applies: Bacteroides fragilis, ATCC23745, in Mus musculus, po, 48 h, read-out: Dose giving 1 log reduction, p.o., after infection and twice daily for 2 days; 1 log (90%) reduction of CFU/ml liver homogenate vs untreated; compound of Example.

Regarding `[O-][N+]1=C(c2ccccc2)C2=NCCN2c2cc(N3CCN(c4ccccc4)CC3)c(F)cc21` [Example 5, 1,2-Dihydro-7-fluoro-4-phenyl-8-(4-phenylpiperazinyl)imidazo[1,2-a]quinoxaline 5-oxide], the MIC in the test with B. fragilis NCTC 10581 (48 h) stood at 3.1 µg/mL (≈ 7.02 µM); in the test with B. fragilis NCTC 9343 (read-out: MIC), 1.5 µg/mL (≈ 3.4 µM); in the test with B. fragilis NCTC 9344 it was 6.2 µg/mL (≈ 14 µM); in test [1], 0.8 µg/mL (≈ 1.81 µM); in the test on B. fragilis WS-1 it was 1.5 µg/mL (≈ 3.4 µM); in test [2], 3.1 µg/mL (≈ 7.02 µM). Moreover, the MIC in [3] is 6.2 µg/mL (≈ 14 µM); in test [4] it was less than 0.8 µg/mL; in test [5], less than 0.8 µg/mL; in [6], more than 100 µg/mL; in test [7] it was 6.2 µg/mL (≈ 14 µM); in [8], more than 100 µg/mL. For the same compound, the MIC in [9], in test [10] and in [11] was more than 100 µg/mL throughout. In addition, the ED (1 log reduction) in the test with B. Fragilis ATCC 23745 came to 11.7 mg/kg.
`CC(=O)N1CCN(c2ccc3c(c2)N2CCN=C2C(c2ccccc2)=[N+]3[O-])CC1` [Example 7, 8-(4-Acetylpiperazinyl)-1,2-dihydro-4-phenylimidazo[1,2-a]quinoxaline 5-oxide]: the MIC in the test with B. fragilis NCTC 10581 (read-out: MIC) was 6.2 µg/mL (≈ 15.9 µM); against B. fragilis NCTC 9343 (48 h), 3.1 µg/mL (≈ 7.96 µM); with B. fragilis NCTC 9344 it was 6.2 µg/mL (≈ 15.9 µM); in test [1] (strain D (MZ-R), 48 h, 37° C., anaerobic, read-out: MIC) it was 1.5 µg/mL (≈ 3.85 µM); in the test on B. fragilis WS-1, 6.2 µg/mL (≈ 15.9 µM); in test [2], 1.5 µg/mL (≈ 3.85 µM). Besides, the MIC in test [3] is 3.1 µg/mL (≈ 7.96 µM); in test [4], less than 0.8 µg/mL; in [5], less than 0.8 µg/mL; in test [6], 12.5 µg/mL (≈ 32.1 µM); in test [7], 3.1 µg/mL (≈ 7.96 µM); in test [8], 6.2 µg/mL (≈ 15.9 µM). The MIC in test [9] is 12.5 µg/mL (≈ 32.1 µM); in test [10] it was 25 µg/mL (≈ 64.2 µM); in [11], 12.5 µg/mL (≈ 32.1 µM). The MBC (usually the lowest tested concentration that kills the bacteria rather than only halting them) with B. fragilis NCTC 10581 is 6.2 µg/mL (≈ 15.9 µM); against B. fragilis NCTC 9343 it was 3.1 µg/mL (≈ 7.96 µM); in the test on B. fragilis NCTC 9344 it was 6.2 µg/mL (≈ 15.9 µM); in test [1] (strain D (MZ-R)) it was 1.5 µg/mL (≈ 3.85 µM); with B. fragilis WS-1, 6.2 µg/mL (≈ 15.9 µM). For the same compound, in the test with B. Fragilis ATCC 23745, the ED (1 log reduction) stood at 11.3 mg/kg.
For the compound `[O-][N+]1=C(c2ccccc2)C2=NCCN2c2nc(Cl)ccc21` [Example 3, 8-Chloro-1,2-dihydro-4-phenylimidazo[1,2-a]pyrido[3,2-e]-pyrazine 5-oxide], the MIC with B. fragilis NCTC 10581 (read-out: MIC) amounted to 12.5 µg/mL (≈ 41.8 µM); with B. fragilis NCTC 9343 (read-out: MIC), 12.5 µg/mL (≈ 41.8 µM); in the test with B. fragilis NCTC 9344 it was 6.2 µg/mL (≈ 20.8 µM); in test [1] it was 3.1 µg/mL (≈ 10.4 µM); in the test with B. fragilis WS-1, 6.2 µg/mL (≈ 20.8 µM); in test [2] it was 6.2 µg/mL (≈ 20.8 µM). The MIC was 25 µg/mL (≈ 83.7 µM) in test [3]; less than 0.8 µg/mL in test [4]; less than 0.8 µg/mL in test [5]; 50 µg/mL (≈ 167 µM) in [6]; 6.2 µg/mL (≈ 20.8 µM) in test [7]; 100 µg/mL (≈ 335 µM) in test [8]. In addition, the values for the MIC in test [9], in test [10] and in test [11] were 50 µg/mL (≈ 167 µM), more than 100 µg/mL and 100 µg/mL (≈ 335 µM), respectively. Also, the MBC with B. fragilis NCTC 10581 was found to be 12.5 µg/mL (≈ 41.8 µM); in the test with B. fragilis NCTC 9343 it was 12.5 µg/mL (≈ 41.8 µM); with B. fragilis NCTC 9344, 6.2 µg/mL (≈ 20.8 µM); in test [1] (strain D (MZ-R)), 3.1 µg/mL (≈ 10.4 µM); in the test on B. fragilis WS-1 it was 6.2 µg/mL (≈ 20.8 µM). For the same compound, the ED (1 log reduction) with B. Fragilis ATCC 23745 is less than 40 mg/kg.
